#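 Briefly, cells in 96-well plates were exposed to five compound concentrations for 48 h, and endpoints were estimated by linear interpolation. GI50 is the concentration that inhibits growth by half.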 The source made the active and inactive calls. Cut-off read from the data, not from the text of the source: active = GI50 up to about 1.1 µM and inactive = higher.
# Legend:
# Experiment in all cases: NCI-60 cell line screen, 48 h
# OVCAR-8 = tested on: OVCAR-8
# TK-10 = tested on: TK-10
# A498 = tested on: A498
# U-251 = tested on: U-251
# HCT-116 = tested on: HCT-116
# UO-31 = tested on: UO-31
# COLO 205 = tested on: COLO 205
# SK-OV-3 = tested on: SK-OV-3
# MOLT-4 = tested on: MOLT-4
# MDA-MB-435 = tested on: MDA-MB-435
# KM12 = tested on: KM12
# BT-549 = tested on: BT-549
# HCT-15 = tested on: HCT-15
# M14 = tested on: M14
# 786-0 = tested on: 786-0
# Hs-578T = tested on: Hs-578T
# OVCAR-5 = tested on: OVCAR-5
# DU-145 = tested on: DU-145
# CAKI-1 = tested on: CAKI-1
# A549 = tested on: A549
Structure (SMILES),GI50 (OVCAR-8),GI50 (TK-10),GI50 (A498),GI50 (U-251),GI50 (HCT-116),GI50 (UO-31),GI50 (COLO 205),GI50 (SK-OV-3),GI50 (MOLT-4),GI50 (MDA-MB-435),GI50 (KM12),GI50 (BT-549),GI50 (HCT-15),GI50 (M14),GI50 (786-0),GI50 (Hs-578T),GI50 (OVCAR-5),GI50 (DU-145),GI50 (CAKI-1),GI50 (A549)
CCOC(=O)CCc1ccc(NC(=O)/C=C/c2ccc([N+](=O)[O-])o2)cc1,0.681 µM (active),1.48 µM (inactive),3.14 µM (inactive),2.12 µM (inactive),0.685 µM (active),1.61 µM (inactive),1.52 µM (inactive),9.12 µM (inactive),0.22 µM (active),0.316 µM (active),1.56 µM (inactive),2.66 µM (inactive),1.77 µM,0.92 µM (active),0.229 µM (active),3.16 µM (inactive),2.34 µM (inactive),2.1 µM (inactive),2.47 µM (inactive),3.72 µM (inactive)
Cc1ccc(NC(=S)NNC(=O)c2cc(-c3ccccc3)nc3ccccc23)cc1C,20.8 µM (inactive),23.7 µM (inactive),16.6 µM (inactive),19.5 µM (inactive),18.6 µM (inactive),17.9 µM (inactive),16.6 µM (inactive),16.6 µM (inactive),20.8 µM (inactive),24 µM (inactive),27.4 µM (inactive),18.7 µM (inactive),20.4 µM,15.5 µM (inactive),16.3 µM (inactive),36.1 µM (inactive),26.8 µM (inactive),22.4 µM (inactive),59.7 µM (inactive),20.5 µM (inactive)
COc1ccccc1C(=O)NCC1CCCN2CCCCC12 (centres undefined),> 100 µM (inactive),> 100 µM (inactive),> 100 µM (inactive),> 100 µM (inactive),> 100 µM (inactive),> 100 µM (inactive),> 100 µM (inactive),> 100 µM (inactive),> 100 µM (inactive),> 100 µM (inactive),> 100 µM (inactive),> 100 µM (inactive),> 100 µM,> 100 µM (inactive),> 100 µM (inactive),> 100 µM (inactive),> 100 µM (inactive),> 100 µM (inactive),> 100 µM (inactive),93.3 µM (inactive)
O=C(NC1C/C(=N/O)c2c(Br)sc(Br)c21)C(F)(F)F (centres undefined),20.7 µM (inactive),36.3 µM (inactive),24.5 µM (inactive),16.7 µM (inactive),17.1 µM (inactive),13.7 µM (inactive),51.8 µM (inactive),47.6 µM (inactive),26.3 µM (inactive),47.2 µM (inactive),45 µM (inactive),32.1 µM (inactive),24.8 µM,36.2 µM (inactive),18.2 µM (inactive),11.2 µM (inactive),> 100 µM (inactive),27.5 µM (inactive),13.8 µM (inactive),20 µM (inactive)
CCOC(=O)C1=C(C)N(c2ccc(Cl)cc2)C2(O)C=CC(=O)C3C(=O)N(c4ccccc4)C(=O)C132 (centres undefined),2.12 µM (inactive),1.8 µM (inactive),1.56 µM (inactive),1.87 µM (inactive),1.44 µM (inactive),1.6 µM (inactive),1.67 µM (inactive),2.4 µM (inactive),1.6 µM (inactive),2.23 µM (inactive),1.69 µM (inactive),2.25 µM (inactive),1.82 µM,1.66 µM (inactive),1.53 µM (inactive),2.39 µM (inactive),2.01 µM (inactive),1.87 µM (inactive),1.87 µM (inactive),2.83 µM (inactive)
C/C(=C1\N=C(c2ccccc2)OC1=O)c1ccccc1,70.8 µM (inactive),> 100 µM (inactive),> 100 µM (inactive),> 100 µM (inactive),> 100 µM (inactive),> 100 µM (inactive),> 100 µM (inactive),> 100 µM (inactive),> 100 µM (inactive),> 100 µM (inactive),> 100 µM (inactive),0.61 µM (active),> 100 µM,> 100 µM (inactive),,> 100 µM (inactive),> 100 µM (inactive),> 100 µM (inactive),> 100 µM (inactive),> 100 µM (inactive)
CO[C@H]1C=C[C@@]23c4cc5c(cc4CO[C@]2(O)CN(C)[C@H]3C1)OCO5,> 100 µM (inactive),> 100 µM (inactive),> 100 µM (inactive),> 100 µM (inactive),> 100 µM (inactive),> 100 µM (inactive),> 100 µM (inactive),> 100 µM (inactive),> 100 µM (inactive),> 100 µM (inactive),> 100 µM (inactive),> 100 µM (inactive),> 100 µM,> 100 µM (inactive),> 100 µM (inactive),> 100 µM (inactive),> 100 µM (inactive),> 100 µM (inactive),> 100 µM (inactive),> 100 µM (inactive)

# Reference: ChEMBL document CHEMBL1201862, “PubChem BioAssay data set” (2004)
